Experimental data from patent US20130137975A1, “PET IMAGING” (OSI PHARMACEUTICALS, LLC, priority 2010, published 2013).
Where two headings read alike, the source gives them in different places.

Columns and labels:
H292 cells [1] = assay: 3H-2-deoxyglucose uptake assay in H292 cells; assay type: cell-based; conditions: for 3H-2-deoxyglucose uptake (FIG. 16): 30 minute treatment, selected concentrations of each agent
Procedure: (§1) H292 and H441 cells were seeded in 12 well microtiter plates (Becton Dickinson) at 9.0×10^5 cells per well in normal glucose (11.1 mM) media for 6 hours (n=3 wells/group). The media was then changed to 5.5 mM glucose media and the cells were allowed to equilibrate overnight. On the day of the assay the media was again removed and replaced with 0.0 mM glucose (glucose starvation) for three hours. […] After a 5, 30, or 45-minute exposure the media was removed, the cells placed on ice and washed with ice-cold PBS buffer solution. The PBS was then removed and the cells were lysed in RIPA buffer for 15 minutes on ice. The lysates were harvested and counted in a Packard Liquid Scintillation counter.

NCI-H441 cells = assay: 3H-2-deoxyglucose uptake assay in H441 cells; assay type: cell-based; conditions: 30 minutes after treatment; higher doses than in NCI H292 cells
Procedure: as §1

pAKT, pS6, pERK, AS160 = assay: Western blot of H292 in vitro cell lysates, downstream markers of altered glycolysis; assay type: cell-based
pERK, pAKT, pS6, AS160 = assay: Western blot of NCI-H292 tumor lysates in vivo, markers of altered glycolysis; design: species or system mice; conditions: 60 mg/kg
Procedure: (§2) Palpable tumors were evident approximately 10 days post implant. When the tumors achieved a volume of approximately 300 mm^3, the animals were sorted, randomized, and placed on study.
Tumors were homogenized in 1 mL of TGH buffer per 200 mg of tissue on ice at 15,000 rpm until total homogenization was achieved. For analysis of IGF-1R and IR phosphorylation status, after pre-clearing by centrifugation (14,000 rpm/5 minutes), the lysate was incubated overnight at 4° C. with an antiphosphotyrosine antibody, and 30 μL Protein A-sephorase was then added and further incubated for an additional two hours. […] Antibodies were obtained from Santa Cruz Biotechnology.

H292 cells [2] = assay: analysis for cell death by FACS; assay type: cell-based; conditions: 1.0-30 μM, compared to 0.05% DMSO controls
H292 xenografts = assay: 18F-FDG-PET imaging of H292 xenografts; assay type: in vivo, athymic nu/nu mice; conditions: 60 mg/kg oral; 2 and 4 hours post dosing
Procedure: (§3) Palpable tumors were evident approximately 10 days post implant. […] Mice were fasted from food 12 hours prior to imaging with ^18F-FDG (VUIIS Cyclotron). […] After dosing, the mice were kept isolated in a chamber at a constant temperature of 30° C. using a warm air circulating device (Harvard Apparatus). […] After 30 minutes, PET imaging was performed using a Concord small animal PET imager. Images were then collected and reconstructed. Analyses of separate regions of interest (ROI) drawn over the area of the tumors (and muscle) were conducted and glucose uptake was calculated as % injected dose per gram of tissue against known phantom standards.

H292 tumors = assay: 18F-FDG biodistribution study, H292 tumors; assay type: in vivo, athymic nu/nu mice; conditions: 60 mg/kg oral; between 2 and 8 hours post treatment; scintillation counting
Procedure: Palpable tumors were evident approximately 10 days post implant. […] Mice were fasted for 12-16 hours prior to dosing with the radiopharmaceutical. […] Mice were kept isolated and under a warming lamp at a temperature of approximately 30° C. One hour before the desired sacrifice time, the mice were dosed with 4-6 μCi of ^18F-FDG via the lateral tail vein. The mice were sacrificed 60 minutes later via CO2 asphyxiation, and selected tissues removed, rinsed, weighed and then placed into scintillation tubes. The samples were counted using a Cobra II Scintillation Counter and the % injected dose per gram of tissue calculated against prepared standards.

NCI-H441 xenografts = assay: tumor growth of NCI-H441 xenografts under daily treatment; assay type: in vivo, mice; conditions: daily treatment with 60 mg/kg
From the text: as §2

H441 xenografts = assay: 18F-FDG-PET imaging of H441 xenografts; assay type: in vivo, athymic nu/nu mice; conditions: 60 mg/kg oral; any time point evaluated (2, 4, 24 hours)
Procedure: as §3

pIGF-1R = biological target: T1, pIGF-1R (Homo sapiens, UniProt P08069); assay: Western blot of NCI-H292 cells, target inhibition; assay type: cell-based
T1 construct: endogenous in cells; host or cells: NCI-H292

IGF-1R = IGF-1R (Homo sapiens, UniProt P08069); conditions: 1 μM OSI-906; panel of 116 kinases; cited from earlier work
phospho-IGF1-R = biological target: T2, phospho-IGF1-R (Homo sapiens, UniProt P08069); assay: target inhibition in H292 tumor lysates in vivo (RTK array analysis); design: species or system mice; conditions: for inhibition at 60 mg/kg: NCI-H292, read-out: target inhibition of phospho-IGF1-R, single dose 60 mg/kg
T2 construct: endogenous in cells; host or cells: NCI-H292 cells grown as subcutaneous xenograft tumours in athymic nu/nu mice
From the text: All animal studies were under the approval of the Institutional Animal Care and Use Committee in an American Association for Accreditation of Laboratory Animal Care-accredited vivarium and in accordance with the Institute of Laboratory Animal Research (Guide for Care and Use of Laboratory Animals, NIH, Bethesda, Md.). Mice were 8-week-old athymic nu/nu mice (Charles Rivers) and were housed in clean specific pathogen free rooms in groups of four mice per cage. The mice were allowed access to sterile rodent chow and water ad libitum except when undergoing FDG-PET imaging, as noted. The H292 and H441 cells were harvested from T225 flasks at 90% confluency and implanted in the right thigh subcutaneously at a concentration of 1.0×10^7 cells per 100 μL of PBS inoculum. […] When the tumors achieved a volume of approximately 300 mm^3, the animals were sorted, randomized, and placed on study.
Tumor lysates were prepared according to the manufacturer's protocol (Proteome Profiler, R&D Systems). Briefly, tumor lysates were solubilized in NP-40 lysis buffer and re-suspended for 30 minutes at 2° C. with rocking. This preparation was centrifuged at 14,000×g for 5 minutes and transferred to a clean tube. Protein concentration was then determined by BCA assay. The lysate was then incubated with the Human Phospho-RTK array at 1000 μg overnight at 2° C. with rocking. The arrays were then washed, and incubated with freshly prepared detection antibody for two hours. After washing, the arrays were exposed to film for 0.5-3.0 minutes. The developed arrays were then quantitfied using a Kodak scanner and image analysis software.

NCI H292 xenografts = assay: tumor growth of NCI H292 xenografts under daily treatment; assay type: in vivo, mice; conditions: daily treatment with 60 mg/kg
From the text: as §2

T2 sequence (P08069 31-1367): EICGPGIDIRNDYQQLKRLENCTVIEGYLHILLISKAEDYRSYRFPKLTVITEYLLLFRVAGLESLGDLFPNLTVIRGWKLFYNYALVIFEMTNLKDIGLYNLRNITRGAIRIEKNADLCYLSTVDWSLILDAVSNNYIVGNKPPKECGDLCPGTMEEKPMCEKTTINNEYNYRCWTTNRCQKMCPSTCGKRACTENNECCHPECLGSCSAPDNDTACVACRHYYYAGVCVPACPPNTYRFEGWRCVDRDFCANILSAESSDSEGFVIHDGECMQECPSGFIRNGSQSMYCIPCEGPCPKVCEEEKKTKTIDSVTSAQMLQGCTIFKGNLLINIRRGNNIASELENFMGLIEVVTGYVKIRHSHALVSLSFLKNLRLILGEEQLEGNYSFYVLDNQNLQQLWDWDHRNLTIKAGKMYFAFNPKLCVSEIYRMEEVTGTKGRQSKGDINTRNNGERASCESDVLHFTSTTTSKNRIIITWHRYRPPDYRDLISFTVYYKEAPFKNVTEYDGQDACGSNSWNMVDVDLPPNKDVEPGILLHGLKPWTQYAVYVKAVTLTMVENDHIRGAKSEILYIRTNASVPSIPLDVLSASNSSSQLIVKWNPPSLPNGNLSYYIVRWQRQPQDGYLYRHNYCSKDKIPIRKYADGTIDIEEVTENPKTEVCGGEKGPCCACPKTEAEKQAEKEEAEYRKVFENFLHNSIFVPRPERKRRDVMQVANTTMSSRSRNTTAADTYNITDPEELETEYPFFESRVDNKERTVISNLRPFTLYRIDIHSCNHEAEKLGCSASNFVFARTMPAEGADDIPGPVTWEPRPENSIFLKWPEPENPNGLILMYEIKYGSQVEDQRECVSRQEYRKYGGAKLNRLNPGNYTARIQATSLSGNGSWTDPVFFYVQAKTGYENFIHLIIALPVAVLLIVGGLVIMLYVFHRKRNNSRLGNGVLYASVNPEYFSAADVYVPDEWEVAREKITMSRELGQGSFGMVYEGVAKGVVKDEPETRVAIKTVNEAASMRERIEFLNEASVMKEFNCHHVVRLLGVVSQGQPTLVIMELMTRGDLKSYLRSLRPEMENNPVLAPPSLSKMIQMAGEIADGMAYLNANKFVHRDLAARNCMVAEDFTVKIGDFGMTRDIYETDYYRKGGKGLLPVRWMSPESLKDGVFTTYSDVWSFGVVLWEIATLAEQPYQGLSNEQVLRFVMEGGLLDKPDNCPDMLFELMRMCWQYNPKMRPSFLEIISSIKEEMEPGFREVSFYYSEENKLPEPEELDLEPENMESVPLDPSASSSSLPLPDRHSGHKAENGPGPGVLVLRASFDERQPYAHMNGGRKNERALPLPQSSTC
T1 sequence (P08069 31-1367): as above
IGF-1R, sequence (P08069 31-1367): as above

Compound: C=C1[C@@H](C)[C@H]2[C@H](Cc3ccccc3)NC(=O)[C@]23OC(=O)/C=C/[C@H](O)CCC[C@@H](C)C/C=C/[C@H]3[C@@H]1O [Cytochalasin B, reference compound]
- 3H-2-deoxyglucose uptake, positive control (H292 cells [1]; 2.5-10 μM, 30 minutes post treatment (FIG. 3)): significantly inhibits uptake

Compound: CC1(O)CC(c2nc(-c3ccc4ccc(-c5ccccc5)nc4c3)c3c(N)nccn23)C1 (stereo not drawn) [OSI-906, cis-3-[8-amino-1-(2-phenyl-quinolin-7-yl)-imidazo[1,5-a]pyrazin-3-yl]-1-methylcyclobutanol]
- 3H-2-deoxyglucose uptake (FIG. 13) (NCI-H441 cells): dose dependent decrease
- signal intensity of phospho-AKT, phospho-S6 and AS160 bands (pAKT, pS6, pERK, AS160; 0.0 μM-30 μM, 30 minutes after drug treatment (FIG. 11)): dose dependent response with respect to decreased signal intensity
- downstream targets pERK, pAKT, pS6, AS160 (pAKT, pS6, pERK, AS160; 30 minutes of exposure (FIG. 12)): inhibition of downstream targets
- phospho-AKT, phospho-S6, phospho-ERK and AS160 in tumor lysates (pERK, pAKT, pS6, AS160; 4 hours post treatment, compared to untreated control lysates): decreased signal intensity
- pERK, pAKT, pS6 in tumor lysates (pERK, pAKT, pS6, AS160; 24 hours post dose): return to baseline levels
- cell death by FACS analysis (H292 cells [2]): no significant cell death
- 18F-FDG uptake (PET SUV) (H292 xenografts): significant decrease
- decrease of 18F-FDG uptake in tumor samples compared to vehicle control animals (H292 tumors): 20-50%
- tumor growth compared to vehicle-treated cohort (NCI-H441 xenografts): do not exhibit a difference in tumor growth
- 18F-FDG uptake (PET SUV) (H441 xenografts): do not demonstrate a significant change
- pIGF-1R (pIGF-1R; 30 minutes of exposure, all doses (FIG. 12)): target inhibition
- pIGF-1R, time course (pIGF-1R; 2 hours, all concentrations (10 nM, 100 nM, 500 nM)): reduction
- pIGF-1R, time course (pIGF-1R; through 24 hours, 10 nM, 100 nM, 500 nM): inhibition remains through 24 hours in all but the lowest, 10 nM concentration
- inhibition of IGF-1R (IGF-1R): greater than 50%
- inhibition at 60 mg/kg (phospho-IGF1-R; 2 and 4 hours post treatment): ~85%
- inhibition at 60 mg/kg (phospho-IGF1-R; 24 hours): 70%
- target inhibition of pIGF-1R, RTK array (FIGS. 17 and 18) (phospho-IGF1-R; single 60 mg/kg treatment, 2, 4 and 24 hours): strong target inhibition
- 3H-2-deoxyglucose uptake (FIG. 16) (H292 cells [1]): rapid inhibition
- 3H-2-deoxyglucose uptake, onset (H292 cells [1]; as early as five minutes post treatment, increasing concentrations): significant decrease
- tumor growth compared to vehicle controls (NCI H292 xenografts): significant tumor growth inhibition

Compound: C#Cc1cccc(Nc2ncnc3cc(OCCOC)c(OCCOC)cc23)c1 [erlotinib, reference compound]
- 3H-2-deoxyglucose uptake (FIG. 16) (H292 cells [1]): rapid inhibition
